Assay results: patent US11407737B2, “Inhibitors of RAF kinases” (Kinnate Biopharma Inc., priority 2020, dated 2022)

Target: human RAF1 (Homo sapiens (Human), UniProt P04049)
Assay: Protein kinase assay (radiometric 33P-ATP, MEK1 (K97R) substrate), RAF-1
Assay type: biochemical
Conditions: human MEK1 (K97R) substrate 3 micromolar, ATP 10 micromolar; 10-dose, 3-fold serial dilution starting at 10 micromolar; read-out: RAF-1 IC50
Description: Example 1: Kinase Assay Protocol
Assay platform was used to measure kinase/inhibitor interactions as described previously (Anastassiadis et al., 2011). In brief, for each reaction, kinase and substrate were mixed in a buffer containing 20 mM HEPES (pH 7.5), 10 mM MgCl2, 1 mM EGTA, 0.02% Brij35, 0.02 mg/mL BSA, 0.1 mM Na3VO4, 2 mM DTT, and 1% DMSO. All compounds were solubilized in DMSO. Compounds were then added to each reaction mixture via acoustic dispense using an ECHO 550 nanoliter dispenser. For human RAF1 testing, human MEK1 (K97R) was used as a substrate at a concentration of 3 micromolar, with a final ATP concentration of 10 micromolar. For human BRAF testing, human MEK1 (K97R) was used as a substrate at 1 micromolar concentration, with a final ATP concentration of 25 micromolar. […] After a 20-min incubation, ATP (Sigma-Aldrich, St. Louis, Mo. 63178) and [g33P] ATP (specific activity 10 microCi/microliter) purchased at PerkinElmer (Boston, Mass., 02118 Cat #BLU 003H250UC) were added at a final total concentration of […]. Reactions were carried out at room temperature for 2 hr and spotted onto P81 ion exchange cellulose chromatography paper (Reaction Biology). Filter paper was washed in 0.75% phosphoric acid to remove unincorporated ATP. The percent remaining kinase activity relative to a vehicle-containing (DMSO) kinase reaction was calculated for each kinase/inhibitor pair. IC50 values were calculated using Prism 5 (GraphPad).

Chain of human RAF1 (P04049 whole entry): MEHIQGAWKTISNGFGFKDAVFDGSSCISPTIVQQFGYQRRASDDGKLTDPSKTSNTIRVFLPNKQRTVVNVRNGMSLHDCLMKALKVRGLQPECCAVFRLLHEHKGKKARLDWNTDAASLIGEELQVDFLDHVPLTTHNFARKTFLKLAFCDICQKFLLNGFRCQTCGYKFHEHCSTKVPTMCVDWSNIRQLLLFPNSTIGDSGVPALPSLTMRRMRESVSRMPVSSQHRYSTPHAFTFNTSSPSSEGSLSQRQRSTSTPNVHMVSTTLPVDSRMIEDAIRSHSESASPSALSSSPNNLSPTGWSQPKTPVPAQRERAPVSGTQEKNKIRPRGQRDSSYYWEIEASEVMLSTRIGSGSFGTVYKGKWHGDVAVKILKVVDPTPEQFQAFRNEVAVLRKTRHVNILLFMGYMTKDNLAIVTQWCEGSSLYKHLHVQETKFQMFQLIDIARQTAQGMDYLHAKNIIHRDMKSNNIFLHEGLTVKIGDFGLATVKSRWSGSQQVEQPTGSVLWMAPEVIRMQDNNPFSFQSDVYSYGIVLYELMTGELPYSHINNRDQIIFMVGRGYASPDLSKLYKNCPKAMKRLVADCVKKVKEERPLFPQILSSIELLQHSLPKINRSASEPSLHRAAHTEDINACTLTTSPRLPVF

| SMILES | IC50 [nM] |
| --- | --- |
| Cc1ccc(NC(=O)N2CC[C@@H](CC(F)(F)F)C2)cc1-c1cc(-c2cc(C)n(C)n2)nc(N2CCOCC2)c1 [Example 52, (3S)—N-[3-[2-(1,5-dimethylpyrazol-3-yl)-6-(morpholin-4-yl)pyridin-4-yl]-4-methylphenyl]-3-(2,2,2-trifluoroethyl)pyrrolidine-1-carboxamide] | 1 to 10 |
| Cc1ccc(NC(=O)N2CC[C@@H](CC(F)(F)F)C2)cc1-c1cc(N2CCOCC2)nc(C(F)(F)F)c1 [Example 56, (3S)—N-[4-methyl-3-[2-(morpholin-4-yl)-6-(trifluoromethyl)pyridin-4-yl]phenyl]-3-(2,2,2-trifluoroethyl)pyrrolidine-1-carboxamide] | 1 to 10 |
| Cc1ccc(NC(=O)N2CC[C@@H](CC(F)(F)F)C2)cc1-c1cc(-c2cnn(CCO)c2)nc(N2CCOCC2)c1 [Example 58, (3S)—N-(3-(2-(1-(2-hydroxyethyl)-1H-pyrazol-4-yl)-6-morpholinopyridin-4-yl)-4-methylphenyl)-3-(2,2,2-trifluoroethyl)pyrrolidine-1-carboxamide] | 1 to 10 |
| Cc1ccc(NC(=O)N2CC[C@@H](CC(F)(F)F)C2)cc1-c1cc(-c2ccnn2CCO)nc(N2CCOCC2)c1 [Example 59, (3S)—N-(3-{2-[2-(2-hydroxyethyl)pyrazol-3-yl]-6-(morpholin-4-yl)pyridin-4-yl}-4-methylphenyl)-3-(2,2,2-trifluoroethyl)pyrrolidine-1-carboxamide] | 1 to 10 |
| Cc1ccc(NC(=O)N2CC[C@@H](CC(F)(F)F)C2)cc1-c1cc(CO)nc(N2CCOCC2)c1 [Example 60, (3S)—N-[3-[2-(hydroxymethyl)-6-(morpholin-4-yl)pyridin-4-yl]-4-methylphenyl]-3-(2,2,2-trifluoroethyl)pyrrolidine-1-carboxamide] | 1 to 10 |
| Cc1ccc(NC(=O)N2CCO[C@H](C(F)(F)F)C2)cc1-c1cc(-c2cnn(C)c2)nc(N2CCOCC2)c1 [Example 62, (2S)—N-{4-methyl-3-[2-(1-methylpyrazol-4-yl)-6-(morpholin-4-yl)pyridin-4-yl]phenyl}-2-(trifluoromethyl)morpholine-4-carboxamide] | 1 to 10 |
| Cc1ccc(NC(=O)N2CCO[C@@H](C(F)(F)F)C2)cc1-c1cc(-c2cnn(C)c2)nc(N2CCOCC2)c1 [Example 63, (2R)—N-{4-methyl-3-[2-(1-methylpyrazol-4-yl)-6-(morpholin-4-yl)pyridin-4-yl]phenyl}-2-(trifluoromethyl)morpholine-4-carboxamide] | 1 to 10 |
| Cc1ccc(NC(=O)N2CC=C(C(F)(F)F)C2)cc1-c1cc(-c2cnn(C)c2)nc(N2CCOCC2)c1 [Example 66, N-{4-methyl-3-[2-(1-methylpyrazol-4-yl)-6-(morpholin-4-yl)pyridin-4-yl]phenyl}-3-(trifluoromethyl)-2,5-dihydropyrrole-1-carboxamide] | < 1 |
| Cc1cc(F)c(NC(=O)N2CCO[C@H](C(F)(F)F)C2)cc1-c1cc(-c2cnn(C)c2)nc(N2CCOCC2)c1 [Example 67, (2S)—N-{2-fluoro-4-methyl-5-[2-(1-methylpyrazol-4-yl)-6-(morpholin-4-yl)pyridin-4-yl]phenyl}-2-(trifluoromethyl)morpholine-4-carboxamide] | < 1 |
| Cc1cc(-c2cc(NC(=O)N3CC[C@@H](CC(F)(F)F)C3)c(F)cc2C)cc(N2CCOCC2)n1 [Example 70, (3S)—N-{2-fluoro-4-methyl-5-[2-methyl-6-(morpholin-4-yl)pyridin-4-yl]phenyl}-3-(2,2,2-trifluoroethyl)pyrrolidine-1-carboxamide] | < 1 |
| Cc1cc(F)c(NC(=O)N2CC=C(C(F)(F)F)C2)cc1-c1cc(-c2ccnn2C)nc(N2CCOCC2)c1 [Example 73, N-{2-fluoro-4-methyl-5-[2-(2-methylpyrazol-3-yl)-6-(morpholin-4-yl)pyridin-4-yl]phenyl}-3-(trifluoromethyl)-2,5-dihydropyrrole-1-carboxamide] | < 1 |

More lines, now with the values ahead:

| IC50 [nM] | SMILES |
| --- | --- |
| < 1 | Cc1ccc(NC(=O)N2CC[C@@H](CC(F)(F)F)C2)cc1-c1cc(-c2ccnn2C)nc(N2CCOCC2)c1 [Example 49, (3S)—N-[4-methyl-3-[2-(2-methylpyrazol-3-yl)-6-(morpholin-4-yl)pyridin-4-yl]phenyl]-3-(2,2,2-trifluoroethyl)pyrrolidine-1-carboxamide] |
| 1 to 10 | Cc1cc(-c2cc(-c3cc(NC(=O)N4CC[C@@H](CC(F)(F)F)C4)ccc3C)cc(N3CCOCC3)n2)n(C)n1 [Example 50, (3S)—N-[3-[2-(2,5-dimethylpyrazol-3-yl)-6-(morpholin-4-yl)pyridin-4-yl]-4-methylphenyl]-3-(2,2,2-trifluoroethyl)pyrrolidine-1-carboxamide] |
| 1 to 10 | Cc1ccc(NC(=O)N2CC[C@@H](CC(F)(F)F)C2)cc1-c1cc(-c2c(C)n[nH]c2C)nc(N2CCOCC2)c1 [Example 51, (3S)—N-[3-[2-(3,5-dimethyl-1H-pyrazol-4-yl)-6-(morpholin-4-yl)pyridin-4-yl]-4-methylphenyl]-3-(2,2,2-trifluoroethyl)pyrrolidine-1-carboxamide] |
| 1 to 10 | Cc1ccc(NC(=O)N2CC[C@@H](CC(F)(F)F)C2)cc1-c1cc(-c2c[nH]cn2)nc(N2CCOCC2)c1 [Example 53, (3S)—N-[3-[2-(1H-imidazol-4-yl)-6-(morpholin-4-yl)pyridin-4-yl]-4-methylphenyl]-3-(2,2,2-trifluoroethyl)pyrrolidine-1-carboxamide] |
| 1 to 10 | Cc1ccc(NC(=O)N2CC[C@@H](CC(F)(F)F)C2)cc1-c1cc(-c2cn(C)cn2)nc(N2CCOCC2)c1 [Example 54, (3S)—N-{4-methyl-3-[2-(1-methylimidazol-4-yl)-6-(morpholin-4-yl)pyridin-4-yl]phenyl}-3-(2,2,2-trifluoroethyl)pyrrolidine-1-carboxamide] |
| 1 to 10 | Cc1ccc(NC(=O)N2CC[C@@H](CC(F)(F)F)C2)cc1-c1cc(C#CC(C)N)nc(N2CCOCC2)c1 (stereo partly drawn) [Example 55, (3S)—N-{3-[2-(3-aminobut-1-yn-1-yl)-6-(morpholin-4-yl)pyridin-4-yl]-4-methylphenyl}-3-(2,2,2-trifluoroethyl)pyrrolidine-1-carboxamide] |
| 1 to 10 | Cc1ccc(NC(=O)N2CC[C@@H](CC(F)(F)F)C2)cc1-c1cc(C(F)F)nc(N2CCOCC2)c1 [Example 57, (3S)—N-{3-[2-(difluoromethyl)-6-(morpholin-4-yl)pyridin-4-yl]-4-methylphenyl}-3-(2,2,2-trifluoroethyl)pyrrolidine-1-carboxamide] |
| 1 to 10 | Cc1ccc(NC(=O)N2CC[C@@H](CC(F)(F)F)C2)cc1-c1cc(-c2nncn2C)nc(N2CCOCC2)c1 [Example 61, (3S)—N-{4-methyl-3-[2-(4-methyl-1,2,4-triazol-3-yl)-6-(morpholin-4-yl)pyridin-4-yl]phenyl}-3-(2,2,2-trifluoroethyl)pyrrolidine-1-carboxamide] |
| 1 to 10 | Cc1ccc(NC(=O)N2CC[C@@H](OC(F)(F)F)C2)cc1-c1cc(-c2cnn(C)c2)nc(N2CCOCC2)c1 [Example 64, (3R)—N-{4-methyl-3-[2-(1-methylpyrazol-4-yl)-6-(morpholin-4-yl)pyridin-4-yl]phenyl}-3-(trifluoromethoxy)pyrrolidine-1-carboxamide] |
| < 1 | Cc1ccc(NC(=O)N2CCO[C@@H](C(F)(F)F)C2)cc1-c1cc(-c2ccnn2C)nc(N2CCOCC2)c1 [Example 65, (2R)—N-{4-methyl-3-[2-(2-methylpyrazol-3-yl)-6-(morpholin-4-yl)pyridin-4-yl]phenyl}-2-(trifluoromethyl)morpholine-4-carboxamide] |
| < 1 | Cc1cc(F)c(NC(=O)N2CCO[C@@H](C(F)(F)F)C2)cc1-c1cc(-c2cnn(C)c2)nc(N2CCOCC2)c1 [Example 68, (2R)—N-{2-fluoro-4-methyl-5-[2-(1-methylpyrazol-4-yl)-6-(morpholin-4-yl)pyridin-4-yl]phenyl}-2-(trifluoromethyl)morpholine-4-carboxamide] |
| < 1 | Cc1cc(F)c(NC(=O)N2CC=C(C(F)(F)F)C2)cc1-c1cc(-c2cnn(C)c2)nc(N2CCOCC2)c1 [Example 69, N-{2-fluoro-4-methyl-5-[2-(1-methylpyrazol-4-yl)-6-(morpholin-4-yl)pyridin-4-yl]phenyl}-3-(trifluoromethyl)-2,5-dihydropyrrole-1-carboxamide] |
| < 1 | Cc1cc(F)c(NC(=O)N2CC[C@@H](CC(F)(F)F)C2)cc1-c1cc(C2CC2)nc(N2CCOCC2)c1 [Example 71, (3S)—N-{5-[2-cyclopropyl-6-(morpholin-4-yl)pyridin-4-yl]-2-fluoro-4-methylphenyl}-3-(2,2,2-trifluoroethyl)pyrrolidine-1-carboxamide] |
| < 1 | CCc1cc(-c2cc(NC(=O)N3CC[C@@H](CC(F)(F)F)C3)c(F)cc2C)cc(N2CCOCC2)n1 [Example 72, (3S)—N-{5-[2-ethyl-6-(morpholin-4-yl)pyridin-4-yl]-2-fluoro-4-methylphenyl}-3-(2,2,2-trifluoroethyl)pyrrolidine-1-carboxamide] |
